Entries after “also recorded” stand apart in the source; their conditions may differ.
Assays:
[1] = available chlorine over one hour in mixtures of a chelator and a sodium hypochlorite solution, titration with sodium thiosulfate (FIGS. 2 and 3); format: physicochemical; conditions: for loss of available hypochlorite anions: admixture into sodium hypochlorite solution
Excerpt: To measure the amount of hypochlorite, it has to be transferred by acidification to chlorine, which oxidizes potassium iodide to iodine. The latter is then titrated with a sodium thiosulfate solution.
In particular, the chlorine reduction from a 9 weight percentage and 18 weight percentage of Na4HEDP with reference to the total weight of the sodium hypochlorite solution as well as the chlorine reduction from a 3 weight percentage and 18 weight percentage of Na4EDTA with reference to the total weight of the sodium hypochlorite solution, respectively, was monitored over one hour, which is the normal duration of an endodontic treatment. The Na4HEDP and the Na4EDTA were each dissolved in a sodium hypochlorite solution comprising 1 weight percentage of sodium hypochlorite with reference to the total weight of the sodium hypochlorite solution.
The amount of chlorine over time was compared with a control solution of 1 weight percentage of pure sodium hypochlorite. In order to determine the amount of the available chlorine, aliquots of each solution (approximately 0.5 grams) were removed after 1 minute, 10 minutes, 20 minutes, 30 minutes and 60 minutes and assessed for their amount of available chlorine using a titration apparatus. Thereby, a 0.1 molar sodium thiosulfate solution was used as titrator.
In FIG. 3, the same measurements are performed using the same amounts of Na4HEDP and Na4EDTA as in FIG. 2, whereby these chelators are each admixed into a NaOCl solution comprising 5 weight percentage of NaOCl.

[2] = evolution of the pH-value of calcium hydroxide with Na4HEDP in distilled water (FIG. 4); format: physicochemical; conditions: 1 gram calcium hydroxide and 0.1 gram Na4HEDP in 10 milliliter distilled water, 10 minutes
Procedure: FIG. 4 depicts the evolution of the pH-value over time determined for the admixture of Na4HEDP and calcium hydroxide in solid form and only calcium hydroxide in solid form, respectively, into distilled water. The solutions are prepared by mixing 1 gram of calcium hydroxide in solid form and 0.1 gram of Na4HEDP in a glass vial. 10 milliliter of distilled water was added, and the pH measurement was started immediately and continued for 10 minutes. As a control, the pH value of 1 gram pure calcium hydroxide dissolved in 10 milliliter of distilled water was recorded, too. […] Consequently, the addition of Na4HEDP to calcium hydroxide can trigger an earlier onset of the desired disinfecting effect. In addition, the binding capacity of Na4HEDP to Ca^2+ makes it easier to remove the calcium hydroxide slurry from the root canal system before the canal is filled with an alloplastic material.

[3] = 18 weight percentage chelator in 1 weight percentage NaOCl solution, after one hour
[4] = 18 weight percentage chelator in 1 weight percentage NaOCl solution, at the start

SMILES	relative amount of chlorine compared to pure NaOCl control ([1]; 3 weight percentage chelator in 1 weight percentage NaOCl solution, after one hour)	relative amount of chlorine compared to pure NaOCl control ([1]; 3 weight percentage chelator in 1 weight percentage NaOCl solution, at the start)	relative amount of chlorine compared to pure NaOCl control [1, 3]	relative amount of chlorine compared to pure NaOCl control [1, 4]	loss of available hypochlorite anions ([1]; over the course of one hour)	amount of chlorine ([1]; chelator in 5 weight percentage NaOCl solution, after one hour)	relative amount of chlorine compared to pure NaOCl control ([1]; 9 weight percentage chelator in 1 weight percentage NaOCl solution, after one hour)	relative amount of chlorine compared to pure NaOCl control ([1]; 9 weight percentage chelator in 1 weight percentage NaOCl solution, at the start)	drop of the amount of chlorine ([1]; chelator in 5 weight percentage NaOCl solution, over the course of one hour)	pH value of the slurry compared to calcium hydroxide alone [2]
O=C([O-])CN(CCN(CC(=O)[O-])CC(=O)[O-])CC(=O)[O-].[Na+].[Na+].[Na+].[Na+] [Na4EDTA, reference compound]	below 25 weight percentage	about 95 weight percentage	below 25 weight percentage	about 75 weight percentage	pronounced loss	zero				
CC(O)(P(=O)([O-])[O-])P(=O)([O-])[O-].[Na+].[Na+].[Na+].[Na+] [Na4HEDP, tetrasodium (1-hydroxyethane)-1,1′-di-phosphonate]			about 75 weight percentage	~100 percentage	no significant loss; also recorded: does not cause any significant loss		about 90 weight percentage	~100 percentage	less than 25 percentage	higher pH value which increases faster
